Tests used:
Test in all cases: Phenotype microarray metabolic activity
Type in all cases: cell-based
[1] = test system: Streptococcus mitis; conditions: S mitis
Description: (§1) The extent of metabolic activity of the tested bacteria in the presence of the above-mentioned saccharides after 24 hours and 48 hours was investigated through a high throughput phenotype microarray system (PM) for microbial cells (Biolog Inc.). Each PM can contain up to 95 different biochemical compounds (e.g. saccharides) that may act as substrates for bacteria as well as one negative control, not containing the substrates. Microarray plates were used in which the different wells of each plate were pre-loaded (by the manufacturer, Biolog Inc.) with different saccharides to be tested. Each bacterial species was tested using a separate microarray plate. Thus, a single bacterial species was tested with a variety of saccharides on each particular plate. The microarrays are based on redox technology, using cell respiration as a universal reporter. Active cell respiration results in the reduction of a tetrazolium dye and in the formation of a strong color—for example, when using the tetrazolium dye “Biolog Redox Dye Mix D”, the color changes from transparent/colorless to purple when the dye is reduced. The observation of this color change indicates which of the substrates improve the metabolic activity and health of the cells.
(§2) Each bacterial species was collected from blood agar plates (incubated for 48 hours anaerobically at 37° C.) and transferred to an IF-0 Base inoculation fluid (Biolog Inc.), which is a nutritionally poor medium. The resulting cell suspension was adjusted to a transmittance of 42% (relative to the transmittance of the base inoculation fluid with no bacterial species present) at 492 nm using a BioRad SmartSpec 3000 Photometer (the adjustment being effected by adding either further inoculation fluid or further bacteria until the transmittance of 42% was achieved). A 1:5 dilution of this suspension was prepared by mixing 3 mL of the 42% transmittance cell suspension with 15 mL of an inoculation fluid (which inoculation fluid was formed by mixing 11.6 mL sterile water, 62.5 mL IF-0 base inoculation fluid and 0.9 mL of the tetrazolium dye “Biolog Redox Dye mix D”), resulting in a final cell density which was equal to 85% transmittance using a BioRad SmartSpec 3000 Photometer. For each of the saccharides tested, the microarray plate (obtained from the supplier (Biolog Inc.) with saccharides already present in the relevant wells in powder form) was directly inoculated with 100 μL/well of this 85% transmittance cell suspension.
(§3) All plates were incubated in an anaerobic atmosphere at 37° C. Color changes were measured spectrophotometrically at 492 nm (Thermo Scientific Multiskan Ascent) at 24 hrs and 48 hrs using the same plate at both time points. […] After 24 hrs and 48 hrs under continuous shaking in a Multiscan microplate reader, the optical density (OD) of the synthetic medium at 24 hours and 48 hours was measured (using the microplate reader) at a wavelength of 492 nm for each combination of bacterium/saccharide, and for each of their respective controls (i.e. which contained the particular bacterium but no saccharide).
(§4) The experiment was carried out three times for each combination of bacterium with saccharide, with each repeat being carried out on a different day (thus providing three biological replicas). The controls were also carried out three times, as above. The values shown are the average (mean) of the three single values obtained (as detailed above) for each combination of bacterium with saccharide, at 24 hrs and at 48 hrs.

[2] = test system: Actinomyces naeslundii; conditions: A naeslundii
Description: as §1, §2, §3, §4

[3] = test system: Aggregatibacter actinomycetemcomitans; conditions: A actinomycetemcomitans
Description: as §1, §2, §3, §4

[4] = test system: Fusobacterium nucleatum; conditions: F nucleatum
Description: as §1, §2, §3, §4

[5] = test system: Tannerella forsythia; conditions: T forsythia
Description: as §1, §2, §3, §4

[6] = test system: Capnocytophaga sputigena; conditions: C sputigena
Description: as §1, §2, §3, §4

[7] = test system: S sanguinis
Description: as §1, §2, §3, §4

[8] = test system: Prevotella intermedia; conditions: P intermedia
Description: as §1, §2, §3, §4

[9] = test system: Streptococcus sobrinus; conditions: S sobrinus
Description: as §1, §2, §3, §4

[10] = test system: Veillonella parvula; conditions: V parvula
Description: as §1, §2, §3, §4

[11] = test system: Actinomyces viscosus; conditions: A viscosus
Description: as §1, §2, §3, §4

[12] = test system: Streptococcus gordonii; conditions: S gordonii
Description: as §1, §2, §3, §4

[13] = test system: Porphyromonas gingivalis; conditions: P gingivalis
Description: as §1, §2, §3, §4

[14] = test system: Streptococcus mutans; conditions: S mutans
Description: as §1, §2, §3, §4

[15] = test system: Streptococcus salivarius; conditions: S salivarius
Description: as §1, §2, §3, §4

| SMILES | metabolic activity: OD 492 nm divided by OD of control (control = 1) ([1]; 24 hrs) | metabolic activity: OD 492 nm divided by OD of control (control = 1) ([1]; 48 hrs) | metabolic activity: OD 492 nm divided by OD of control (control = 1) ([2]; 24 hrs) | metabolic activity: OD 492 nm divided by OD of control (control = 1) ([2]; 48 hrs) | metabolic activity: OD 492 nm divided by OD of control (control = 1) ([3]; 24 hrs) | metabolic activity: OD 492 nm divided by OD of control (control = 1) ([3]; 48 hrs) | metabolic activity: OD 492 nm divided by OD of control (control = 1) ([4]; 24 hrs) | metabolic activity: OD 492 nm divided by OD of control (control = 1) ([4]; 48 hrs) | metabolic activity: OD 492 nm divided by OD of control (control = 1) ([5]; 24 hrs) | metabolic activity: OD 492 nm divided by OD of control (control = 1) ([5]; 48 hrs) | metabolic activity: OD 492 nm divided by OD of control (control = 1) ([6]; 24 hrs) | metabolic activity: OD 492 nm divided by OD of control (control = 1) ([6]; 48 hrs) | metabolic activity: OD 492 nm divided by OD of control (control = 1) ([7]; 24 hrs) | metabolic activity: OD 492 nm divided by OD of control (control = 1) ([7]; 48 hrs) | metabolic activity: OD 492 nm divided by OD of control (control = 1) ([8]; 24 hrs) | metabolic activity: OD 492 nm divided by OD of control (control = 1) ([8]; 48 hrs) | metabolic activity: OD 492 nm divided by OD of control (control = 1) ([9]; 24 hrs) | metabolic activity: OD 492 nm divided by OD of control (control = 1) ([9]; 48 hrs) | metabolic activity: OD 492 nm divided by OD of control (control = 1) ([10]; 24 hrs) | metabolic activity: OD 492 nm divided by OD of control (control = 1) ([10]; 48 hrs) | other results |
| --- | --- | --- | --- | --- | --- | --- | --- | --- | --- | --- | --- | --- | --- | --- | --- | --- | --- | --- | --- | --- | --- |
| O[C@H]1[C@H](O)[C@@H](O)[C@H](O)[C@@H](O)[C@H]1O [Myo-Inositol, (1R,2R,3S,4S,5R,6S)-cyclohexane-1,2,3,4,5,6-hexol] | 1.0571 | 0.9877 | 3.8627 | 4.5573 | 1.3215 | 1.5191 | 0.9063 | 0.8999 | 0.9597 | 0.9564 | 0.5471 | 0.8107 | 0.9436 | 1.0400 | 1.0174 | 1.0226 | 0.9699 | 0.9399 | 1.0283 | 1.0829 | metabolic activity: OD 492 nm divided by OD of control (control = 1) ([11]; 24 hrs): 4.3733; metabolic activity: OD 492 nm divided by OD of control (control = 1) ([11]; 48 hrs): 4.6590; metabolic activity: OD 492 nm divided by OD of control (control = 1) ([12]; 24 hrs): 0.8556; metabolic activity: OD 492 nm divided by OD of control (control = 1) ([12]; 48 hrs): 0.8202; metabolic activity: OD 492 nm divided by OD of control (control = 1) ([13]; 24 hrs): 0.8077; metabolic activity: OD 492 nm divided by OD of control (control = 1) ([13]; 48 hrs): 0.7871; metabolic activity: OD 492 nm divided by OD of control (control = 1) ([14]; 24 hrs): 0.8961; metabolic activity: OD 492 nm divided by OD of control (control = 1) ([14]; 48 hrs): 0.8221; metabolic activity: OD 492 nm divided by OD of control (control = 1) ([15]; 24 hrs): 0.9641; metabolic activity: OD 492 nm divided by OD of control (control = 1) ([15]; 48 hrs): 0.8260 |
| CC(=O)N[C@H](C=O)[C@@H](O)[C@H](O)[C@H](O)CO [N-acetyl-D-mannosamine, 2-acetamido-2-deoxy-D-mannose] | 3.4298 | 3.0447 | 1.4397 | 1.7022 | 1.7369 | 2.1360 | 1.0897 | 1.0886 | 0.9666 | 0.9443 | 1.1116 | 1.0780 | 2.9770 | 3.0358 | 0.9878 | 0.9805 | 1.1993 | 1.1453 | 0.9189 | 0.9284 | metabolic activity: OD 492 nm divided by OD of control (control = 1) ([11]; 24 hrs): 0.9778; metabolic activity: OD 492 nm divided by OD of control (control = 1) ([11]; 48 hrs): 1.0151; metabolic activity: OD 492 nm divided by OD of control (control = 1) ([12]; 24 hrs): 1.6021; metabolic activity: OD 492 nm divided by OD of control (control = 1) ([12]; 48 hrs): 2.3739; metabolic activity: OD 492 nm divided by OD of control (control = 1) ([13]; 24 hrs): 0.7968; metabolic activity: OD 492 nm divided by OD of control (control = 1) ([13]; 48 hrs): 0.8296; metabolic activity: OD 492 nm divided by OD of control (control = 1) ([14]; 24 hrs): 1.0429; metabolic activity: OD 492 nm divided by OD of control (control = 1) ([14]; 48 hrs): 1.0176; metabolic activity: OD 492 nm divided by OD of control (control = 1) ([15]; 24 hrs): 1.0589; metabolic activity: OD 492 nm divided by OD of control (control = 1) ([15]; 48 hrs): 0.9795 |
